Test results taken from article PMC10895676, “Antiviral Activity of Lipophilic Nucleoside Tetraphosphate Compounds” (Journal of Medicinal Chemistry, 2024).
“Also recorded” adds a separate entry of the source.

What follows are compounds tested against T1, human DNA polymerase α (Homo sapiens, UniProt P09884) (assay: Primer extension assay using human DNA polymerase α). Details: 60 min, 2 U, 37 °C.
T1 construct: purchased Chimerx
T1 sequence (P09884 1-1462): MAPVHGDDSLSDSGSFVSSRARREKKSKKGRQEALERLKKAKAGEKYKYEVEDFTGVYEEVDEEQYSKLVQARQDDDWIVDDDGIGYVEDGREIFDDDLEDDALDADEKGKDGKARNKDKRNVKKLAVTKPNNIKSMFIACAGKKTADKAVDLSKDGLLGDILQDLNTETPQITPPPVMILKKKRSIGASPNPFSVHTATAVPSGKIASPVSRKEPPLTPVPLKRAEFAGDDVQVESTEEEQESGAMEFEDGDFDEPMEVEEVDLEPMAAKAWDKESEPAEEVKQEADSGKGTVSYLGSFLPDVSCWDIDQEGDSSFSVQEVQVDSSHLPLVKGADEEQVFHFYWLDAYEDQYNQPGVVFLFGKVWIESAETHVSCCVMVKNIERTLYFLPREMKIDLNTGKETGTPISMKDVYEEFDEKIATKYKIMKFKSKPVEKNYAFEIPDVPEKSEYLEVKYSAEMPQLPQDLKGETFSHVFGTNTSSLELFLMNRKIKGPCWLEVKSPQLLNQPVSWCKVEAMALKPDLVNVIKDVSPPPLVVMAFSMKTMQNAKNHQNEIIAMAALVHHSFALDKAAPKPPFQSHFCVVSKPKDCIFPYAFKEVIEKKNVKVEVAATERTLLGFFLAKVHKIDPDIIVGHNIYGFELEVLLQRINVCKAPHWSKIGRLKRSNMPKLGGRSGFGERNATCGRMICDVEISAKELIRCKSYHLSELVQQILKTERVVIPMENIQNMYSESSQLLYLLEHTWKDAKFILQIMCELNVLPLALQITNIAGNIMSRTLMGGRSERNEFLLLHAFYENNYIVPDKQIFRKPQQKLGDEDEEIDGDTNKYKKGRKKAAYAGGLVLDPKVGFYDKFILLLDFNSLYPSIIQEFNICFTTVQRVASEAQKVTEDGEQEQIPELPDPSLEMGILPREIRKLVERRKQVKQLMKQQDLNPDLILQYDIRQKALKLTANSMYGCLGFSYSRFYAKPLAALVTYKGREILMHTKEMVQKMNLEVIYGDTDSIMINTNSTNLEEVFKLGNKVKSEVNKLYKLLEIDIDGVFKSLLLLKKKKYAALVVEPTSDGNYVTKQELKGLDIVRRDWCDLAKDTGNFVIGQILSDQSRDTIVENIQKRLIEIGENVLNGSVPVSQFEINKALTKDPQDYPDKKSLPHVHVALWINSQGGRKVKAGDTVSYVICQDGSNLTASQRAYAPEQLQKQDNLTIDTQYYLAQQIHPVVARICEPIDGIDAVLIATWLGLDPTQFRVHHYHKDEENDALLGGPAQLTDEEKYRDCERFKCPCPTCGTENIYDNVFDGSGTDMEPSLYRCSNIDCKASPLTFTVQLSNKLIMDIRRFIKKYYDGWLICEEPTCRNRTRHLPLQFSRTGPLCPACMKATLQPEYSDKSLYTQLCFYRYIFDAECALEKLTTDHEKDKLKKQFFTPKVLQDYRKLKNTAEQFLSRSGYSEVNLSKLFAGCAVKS
Format: biochemical
Text: Encouraged by the previously obtained results that γ-phosphate-modified-d4TDPs 3, γ-monoalkylated d4TTP derivatives as well as d4TDP were accepted as substrates by HIV-RT,[49],[50],[55],[59]−[61] δ-dialkylated d4T tetraphosphate analogues 4,5, δ-monoalkylated d4T tetraphosphate analogues 20 and 24 and d4T4P were investigated in primer extension assays in the presence of HIV-RT or the three different human DNA polymerases α, β and γ. D4TTP (for the compounds 4–9) and the natural thymidine triphosphate (TTP) were used as reference compounds.
Figure 6 Primer extension assay using HIV-RT (A), human polymerases α (B), β (C), and γ (D). (Figure 6A). Primer extension assay using HIV-RT (30 min, 6U). Lane 1: (+) dATP, dCTP, dGTP, and TTP with HIV-RT. Lane 2: (−) dATP, dCTP, dGTP, and TTP without HIV-RT. Lane 3: TTP. […] Lane 5: δ-(C4; C18)-d4T4P 4d. […] Lane 7: δ-(C18)-d4T4P 20. Lane 8: δ-C-(C18)-d4T4P 24. Lane 9: d4T4P. Lane 10: d4TTP. Lane 11: d4TDP. HIV-RT assay reaction conditions: 50 mM Tris–HCl (pH 8.6), 10 mM MgCl2, 40 mM KCl, 250 μM dNTPs, HIV-RT (6 U), 0.20 μM DNA hybrid, primer-template-hybrid 0.32 mM in a reaction volume of 10 μL, incubated at 37 °C for 0.5 h, 80 °C for 7 min. Primer extension assays: 50 mA, 45 w for 4 h. (Figure 6B). For human DNA polymerase α assay (60 min, 2 U): Lane 1: (+) dATP, dCTP, dGTP, and TTP with human polymerase α. Lane 2: (−) dATP, dCTP, dGTP, and TTP without human polymerase α. Lane 3: TTP. […] Lane 5: δ-(C4; C18)-d4T4P 4d. […] Lane 7: δ-(C18)-d4T4P 20. Lane 8: δ-C-(C18)-d4T4P 24. Lane 9: d4T4P. Lane 10: d4TTP. Human DNA polymerase α assay conditions: 60 mM Tris–HCl (pH 8), 5 mM Mg(OAc)2, 100 mM KCl, 1.0 mM dithiothreitol, 0.1 mM spermine, 0.01% (w/v) bovine serum albumin, 250 μM dNTPs, 2 U human polymerase α, 0.20 μM DNA hybrid, and primer-template-hybrid 0.32 mM in a reaction volume of 10 μL, incubated at 37 °C for 1 h, 80 °C for 7 min. Primer extension assays: 50 mA, 45 w for 3 h. (Figure 6C). For human DNA polymerase β assay (60 min, 2 U): Lane 1: (+) dATP, dCTP, dGTP, and TTP with human polymerase β. […]

Row | SMILES | substrate for human DNA polymerase α (primer extension)
1 | CCCCCCCCCCCCCCCCCCOP(=O)(O)OP(=O)(O)OP(=O)(O)OP(=O)(O)OC[C@@H]1C=C[C@H](n2cc(C)c(=O)[nH]c2=O)O1 [compound 20, δ-(Alkyl-C18)-d4T4P] | nonsubstrates
2 | CCCCCCCCCCCCCCCCCCP(=O)(O)OP(=O)(O)OP(=O)(O)OP(=O)(O)OC[C@@H]1C=C[C@H](n2cc(C)c(=O)[nH]c2=O)O1 [compound 24, δ-C-(Alkyl-C18)-d4T4P] | nonsubstrates
3 | Cc1cn([C@H]2C=C[C@@H](COP(=O)(O)OP(=O)(O)OP(=O)(O)OP(=O)(O)O)O2)c(=O)[nH]c1=O [d4T4P, 2′,3′-didehydro-2′,3′-dideoxythymidine-5′-tetraphosphate] | nonsubstrates; also recorded: not a substrate
